Experimental data taken from patent publication US20250282746A1, “HALOGEN-SUBSTITUTED ISOINDOLINE COMPOUND AND USE THEREOF” (CHENGDU FENDI PHARMACEUTICAL CO., LTD., priority 2022, published 2025).
Read-outs that look alike come from different tables or passages of the source.

Key:
Assay type in all cases: cell-based
MV-4-11 cells = test: Antiproliferative activity against MV-4-11 cells (CellTiter-Glo, 72 h); conditions: Homo sapiens
In short: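 MV-4-11 cells in RPMI + 10% FBS plated at 5,000 cells/well and pre-incubated 24 h at 37 °C, 5% CO2. Compounds were then added (final DMSO 0.2%) and cells incubated 72 h. Viability was read by CellTiter-Glo luminescence after 30 min equilibration at room temperature.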

NCI-H929 cells = test: Antiproliferative effect alone and in combination with dexamethasone against NCI-H929 cells; conditions: for IC50: Homo sapiens, NCI-H929, 72 h, 72 h
Description: (§1) MOLM-13 cells in the logarithmic growth phase were diluted in a medium RPMI+[…], and NCI-H929 cells were diluted in a medium RPMI+10% FBS. The cells were plated at 4,000 cells/well in 96-well whole black plates (WHB) with 50 μL/well. After plating, the plates were incubated in an incubator at 5% CO2 and 37° C. for 24 h before the compounds were added. The compounds were prepared into a 10 mM stock solution in DMSO and diluted in a culture medium to the desired concentrations (a final DMSO concentration of 0.2%). 50 μL of the compound dilutions at final concentrations of 10,000, 3,333.33, 1,111.11, 370.37, 123.46, 41.15, 13.72, 4.57, 1.52, and 0 nM were added to the 96-well plates containing the cells, that is, each compound was serially diluted to 10 concentrations in duplicate. The plates were incubated at 5% CO2 and 37° C. for 72 h. When pharmaceutical partners were used, the concentrations of azacitidine and dexamethasone were kept at 200 nM and 500 nM respectively, and the compounds were serially three-fold diluted from 10,000 nM. After the incubation was complete, the plates were equilibrated at room temperature for 30 min. CellTiter-Glo® Reagent (Promega G7573) was added at 100 μL/well. The plates were shaken for 12 min on a microplate shaker. The luminescence value was measured at room temperature by the GloMax navigator (Promega GM2010). The IC50 values were calculated using the GraphPad Prism 7 software with the 0 nM control group as 0% inhibition.

hERG potassium channel = target: T1, hERG potassium channel (Homo sapiens, UniProt Q12809); test: hERG inhibition assay (automated patch clamp, HEK293); conditions: 3 μM, HEK293 cells, QPatch
T1 construct: expressed in transfected cells; host or cells: HEK293 cells
From the text: The rapidly activating potassium channel encoded by human ether-a-go-go-related gene (hERG) is an important ion channel involved in the formation of cardiac action potential phase 3 repolarization. Blocking of the hERG channel by drugs can lead to the prolongation of cardiac repolarization and thus a prolonged QT interval in the electrocardiogram, known as long QT syndrome. Drug-induced delayed ventricular repolarization may in some cases trigger fatal arrhythmia-torsade de pointes-type ventricular tachycardia.
This assay was used to measure the effect of compounds on the hERG potassium channel clones expressed in human embryonic kidney (HEK293) cells. The assay procedures are as follows: the cells were transferred into a HEPES-buffered saline in glass-lined 96-well plates and exposed to an appropriate amount of test compound or control solution at various concentrations for 3 min. The test compounds were diluted in 0.3% DMSO.

MOLM-13 cells = test: Antiproliferative effect alone and in combination with azacitidine against MOLM-13 cells; conditions: MOLM-13 cells; for IC50: Homo sapiens, MOLM-13, 72 h, 72 h
Description: as §1

T1 sequence (Q12809 whole entry): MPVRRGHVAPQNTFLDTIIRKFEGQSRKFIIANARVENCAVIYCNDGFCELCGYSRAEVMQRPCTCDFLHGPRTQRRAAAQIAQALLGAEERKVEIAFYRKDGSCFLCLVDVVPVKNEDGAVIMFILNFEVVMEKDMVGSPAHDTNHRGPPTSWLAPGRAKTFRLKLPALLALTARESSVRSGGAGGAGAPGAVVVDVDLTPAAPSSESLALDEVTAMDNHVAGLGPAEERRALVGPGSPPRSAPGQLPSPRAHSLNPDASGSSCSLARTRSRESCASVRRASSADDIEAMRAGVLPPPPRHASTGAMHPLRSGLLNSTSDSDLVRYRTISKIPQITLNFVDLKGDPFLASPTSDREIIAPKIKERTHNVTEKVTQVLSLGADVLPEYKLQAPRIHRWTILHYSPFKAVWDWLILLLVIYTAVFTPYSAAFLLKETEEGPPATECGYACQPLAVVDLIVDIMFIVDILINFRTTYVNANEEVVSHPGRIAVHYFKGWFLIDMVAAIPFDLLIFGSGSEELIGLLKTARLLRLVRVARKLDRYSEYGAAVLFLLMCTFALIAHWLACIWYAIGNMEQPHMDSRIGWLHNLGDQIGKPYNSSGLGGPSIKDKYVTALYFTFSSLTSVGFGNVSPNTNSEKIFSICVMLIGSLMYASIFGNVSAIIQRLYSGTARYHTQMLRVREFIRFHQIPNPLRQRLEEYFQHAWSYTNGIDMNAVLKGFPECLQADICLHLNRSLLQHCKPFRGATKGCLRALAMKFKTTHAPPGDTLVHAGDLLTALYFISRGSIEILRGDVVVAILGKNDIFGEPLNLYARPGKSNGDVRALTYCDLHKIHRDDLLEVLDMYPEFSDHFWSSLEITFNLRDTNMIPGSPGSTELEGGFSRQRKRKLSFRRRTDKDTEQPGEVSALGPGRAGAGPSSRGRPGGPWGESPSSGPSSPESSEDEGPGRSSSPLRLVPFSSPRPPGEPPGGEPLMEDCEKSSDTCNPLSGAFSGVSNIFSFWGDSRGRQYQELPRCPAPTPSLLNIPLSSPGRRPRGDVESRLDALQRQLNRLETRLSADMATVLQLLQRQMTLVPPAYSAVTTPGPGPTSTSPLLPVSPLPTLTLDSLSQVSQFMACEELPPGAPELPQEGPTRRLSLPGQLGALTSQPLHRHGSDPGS

SMILES: O=C1CCC(N2Cc3c(ccc(CNC(=O)c4ccc(Cl)cc4)c3F)C2=O)C(=O)N1 (stereo not drawn) [FDAB-48]
- IC50 (MV-4-11 cells; MV4-11, 72 h, read-out: Antiproliferative activity IC50): 0.01 to 0.1 µM
- IC50 (MV-4-11 cells; MV4-11, read-out: IC50 against MV-4-11 cell proliferation): 0.0108 µM
- increase of antiproliferative activity IC50 when combined with 500 nM dexamethasone (NCI-H929 cells): about 6 folds
- IC50 (NCI-H929 cells; compound alone): 0.0143 µM
- IC50 (NCI-H929 cells; in combination with 500 nM dexamethasone): 0.00245 µM
- hERG inhibition rate (hERG potassium channel): 25%

SMILES: Cc1ccc(C(=O)NCc2ccc3c(c2F)CN(C2CCC(=O)NC2=O)C3=O)c(F)c1 (stereo not drawn) [FDAB-121]
- IC50 (MOLM-13 cells; compound alone): 0.248 µM
- IC50 (MOLM-13 cells; in combination with 200 nM azacitidine): 0.00968 µM
- activity relative to CC-90009, alone or in combination with azacitidine (MOLM-13 cells): about 5 folds
- increase of antiproliferative activity IC50 when combined with 200 nM azacitidine (MOLM-13 cells): about 25 folds
- IC50 (MV-4-11 cells; MV4-11, MV-4-11 cells, 72 h, read-out: Antiproliferative activity IC50): 0.001 to 0.01 µM
- hERG inhibition rate (hERG potassium channel): 9%
